{
  "source": "patent US8236339B2",
  "about": "“Therapeutic delivery of carbon monoxide” (priority 2001, dated 2012)",
  "key": {"[1]": {"tested_on": "deoxymyoglobin (deoxy-Mb)", "assay": "Myoglobin assay: conversion of deoxy-Mb to MbCO on direct addition of metal carbonyl", "type": "biochemical, horse", "details": "direct addition to myoglobin solution (66 μM), no light", "description": "The release of CO from metal carbonyl complexes was assessed spectrophotometrically by measuring the conversion of deoxymyoglobin (deoxy-Mb) to carbonmonoxy myoglobin (MbCO). MbCO has a distinctive absorption spectrum between 500 and 600 nm, and changes at 540 nm were used to quantify the amount of CO liberated. Myoglobin solutions (66 μM final concentration) were prepared freshly by dissolving the protein in 0.04 M phosphate buffer (pH 6.8). Sodium dithionite (0.1%) was added to convert myoglobin to deoxy-Mb prior to each reading. All the spectra were measured using a Helios a spectrophotometer.\nVarious metal carbonyl complexes were tested for their ability to elicit MbCO formation when added directly to a deoxy-Mb solution. To different extents, [Ru(CO)3Cl2]2, [Ru(CO)2(DMSO)2Cl2], [Ru(CO)3Cl2(cytosine)] and […] all released CO when added directly to the Mb solution.\nThe metal carbonyl complex was solubilized in DMSO (9.7 mM stock solution), aliquots of 2 to 32 μl were added directly to 1 ml of deoxy-Mb solutions (66 μM) and absorption spectrum determined immediately after mixing the samples by inversion."}, "[2]": {"tested_on": "aortic rings pre-contracted with phenylephrine", "assay": "Relaxation of isolated aortic rings pre-contracted with phenylephrine", "set-up": "species or system rat", "description": "Transverse ring sections of thoracic aorta were isolated from male Lewis rats and suspended under a 2 g tension in an organ bath containing oxygenated Krebs-Henseleit buffer at 37° C. as previously described (23). The relaxation response to cumulative doses of metal carbonyl (dissolved in DMSO—see section 2) was assessed in aortic rings pre-contracted with phenylephrine (3 μM). Control rings were similarly treated by adding equal doses of DMSO (vehicle) to the organ bath."}, "[3]": {"assay": "Systemic blood pressure and heart rate in anaesthetised Sprague-Dawley rats", "type": "in vivo, rat", "description": "Adult male Sprague-Dawley rats (280-350 g, 8-10 weeks of age) were bred in-house at the Northwick Park Institute for Medical Research (Harrow, UK). Rats were housed in groups of 3 in cages under a 12 h cycle of day/night, with free access to drinking water and fed ad libitum. All surgical procedures were performed in compliance with U.K. Home Office regulations. Rats were anaesthetised in a polycarbonate chamber in a stream of Enflurane™ (Abbot, UK) in oxygen before being transferred onto a mask and continuously supplied with Enflurane™ throughout the experiment with an anaesthetic machine (Aimed, UK). During the surgical procedure the rats were kept at a constant body temperature of 37° C. using a heat pad positioned underneath the operating surface. Specially designed femoral artery and venous catheters were then surgically implanted as previously described (see ref. 40). The catheter in the artery was connected via a luer connector and a three-way tap to a pressure transducer (Gould model P23ID, Statham, USA) for continuous mean arterial pressure (MAP) and heart rate (HR) monitoring. A purpose-built tail-cuff pressure transducer (ADInstruments, UK) was also placed on the tail of the rat and pressure transducer and tail cuff were connected to a polygraph recorder (Grass, Model 7D, Astra-med, UK) pre-calibrated in millimeters of mercury (mmHg). An analogue output provided data for a computer-based data acquisition system (PowerLab™, ADInstruments, UK). The computer-based system was set to record mean arterial pressure (MAP), in mmHg, and heart rate (HR), in beats/min (bpm), for the duration of the experiment. […] Once a stable pressure had been reached, each catheter was flushed with saline containing heparin and no further changes were made to the anaesthetic supply. Ru(CO)3Cl(glycinato) (CO-RM-3) was prepared in stock solutions of 20, 60 and 120 μmoles·ml^−1 by solubilizing the compound in saline. […] CO-RM-3 (or the negative control) was then infused into the animal via the femoral vein catheter as a bolus so that the final concentration infused was 10, 30 or 60 μmoles·kg^−1 body weight. Throughout the experiment MAP and HR were continuously recorded and monitored. Although concentrations of 10, 30 and 60 μmoles·kg^−1 were infused into each animal, the resulting concentrations in the animal were cumulative. Therefore, the final concentration attained in the animal was 10, 40 and 100 μmoles·kg^−1, respectively.\nThe results are presented in Table 2, where the data shown represents samples taken at baseline (just before infusion of the compound) and directly after administration of 10, 30 and 60 μmoles·kg^−1 of the compound. All data are mean i SEM. n=3 independent experiments. *P<0.05 vs. baseline."}, "[4]": {"assay": "Cardiac transplant rejection, BALB/c hearts into CBA mice", "type": "in vivo, mouse", "details": "40 mg/kg i.p. doses", "description": "Hearts from male BALB/c mouse (25-30 g) were used as donor organs for transplantation into male CBA mice (25-30 g). Mice were housed in groups of 3 in cages under a 12 h cycle of day/night, with free access to drinking water and fed ad libitum. All surgical procedures were performed in compliance with U.K. Home Office regulations. Animals were anaesthetized by an intraperitoneal injection of ketamine/xylazine during all procedures. The surgical technique involved the transplantation of the cardiac allograft into the recipient's neck as previously described (51). Graft survival was assessed daily by palpation, and rejection was diagnosed by cessation of ventricular contractions.\nRu(CO)3Cl(glycinato) was dissolved in 0.1 ml saline and administered intraperitoneally. All doses are 40 mg/kg of Ru(CO)3Cl(glycinato). The donors received two doses of Ru(CO)3Cl(glycinato) respectively at 1 day and 15 min prior to cardiac harvest. The recipients received doses of Ru(CO)3Cl(glycinato) at 1 day before surgery, 30 min prior to cardiac reperfusion and 1 h after transplantation (Day 0). Thereafter, graft recipients received a daily dose of Ru(CO)3Cl(glycinato) from day 1 to day 8(inclusive) post-transplant. In the control group, recipients received an equivalent dose of saline (vehicle) 1 day before and each day (days 1 to 8) after cardiac transplantation. Carprofen (0.01 mg) was given subcutaneously for pain relief immediately after transplantation to all animals. The results of this study are shown in FIG. 10. n=5 for each group. *p<0.002 vs. control. BALE/c hearts transplanted into CBA mice following treatment with saline (control group) underwent rejection'very rapidly. 100% of hearts stopped beating within 9 days of transplantation."}, "[5]": {"tested_on": "RAW 264.7 macrophages", "assay": "Nitrite (NO) production in LPS-stimulated macrophages, Griess reagent method", "type": "cell-based, mouse", "details": "10, 50 and 100 μM, 24 h with LPS 3 μg/ml", "description": "Control cells were exposed to culture medium alone."}, "[6]": {"tested_on": "RAW 264.7 macrophages", "details": "24 h, LPS 3 μg/ml with or without CO-RM-3 10, 50 and 100 μM", "method": "Mouse RAW 264.7 macrophages were cultured in 24 wells using DMEM medium Confluent cells were incubated for 24 h with E. Coli lipopolysaccharide (LPS, 3 μg/ml) in the presence or absence of increasing concentrations of CO-RM-3 (10, 50 and 100 μM). Control cells were exposed to culture medium alone. […] Cell viability was also assessed in macrophages 24 h after treatment with the various agents as described in reference 47."}, "[7]": {"details": "cumulative doses, phenylephrine 3 μM"}, "[8]": {"details": "directly after i.v. bolus 10 μmol/kg"}, "[9]": {"details": "directly after i.v. bolus 30 μmol/kg (cumulative 40)"}},
  "note": "Marks after values point to notes of the source that are not given here.",
  "data": [
    {"compound": "NCC(=O)O.[C-]#[O+].[C-]#[O+].[C-]#[O+].[Cl][Ru]", "note": "[CO-RM-3, Ru(CO)3Cl (NH2CH2CO2)]", "values": [
      {"measurement": "MbCO formation / CO release when added directly to deoxy-Mb solution", "setting": "[1]; listed as [Bu(CO)3(glycinate)Cl]", "value": "released CO"},
      {"measurement": "MbCO formation / CO release when added directly to deoxy-Mb solution", "setting": "[1]; listed as [Ru(CO)3(glycinato)Cl]", "value": "high release of CO"},
      {"measurement": "vasodilatory effect on pre-contracted aortic rings (in words)", "setting": "[2]; consecutive additions", "value": "elicited significant vasodilatation"},
      {"measurement": "% Relaxation, 1st addition", "setting": "[2]; [7]", "value": 36, "unit": "%"},
      {"measurement": "% Relaxation, 2nd addition", "setting": "[2]; [7]", "value": 66.6, "unit": "%"},
      {"measurement": "% Relaxation, 3rd addition", "setting": "[2]; [7]", "value": 68.3, "unit": "%"},
      {"measurement": "transient decrease in MAP", "setting": "[3]; 10 μmoles·kg^−1 bolus infusion", "value": "6±2", "unit": "mmHg"},
      {"measurement": "transient decrease in MAP", "setting": "[3]; 30 μmoles·kg^−1 bolus infusion", "value": "8±3", "unit": "mmHg"},
      {"measurement": "transient decrease in MAP", "setting": "[3]; 60 μmoles·kg^−1 bolus infusion", "value": "14±0.3", "unit": "mmHg"},
      {"measurement": "effects on HR or MAP (in words)", "setting": "[3]; 10, 30 or 60 μmoles·kg^−1", "value": "concentration-dependent transient decrease in MAP"},
      {"measurement": "period of return of MAP to baseline", "setting": "[3]; after bolus infusion", "value": 10, "unit": "min"},
      {"measurement": "HR, 10 μmol.kg^−1", "setting": "[3]; [8]", "value": "276 ± 20", "unit": "bpm"},
      {"measurement": "MAP, 10 μmol.kg^−1", "setting": "[3]; [8]", "value": "73 ± 2", "unit": "mmHg"},
      {"measurement": "HR, 30 μmol.kg^−1", "setting": "[3]; [9]", "value": "261 ± 22", "unit": "bpm"},
      {"measurement": "MAP, 30 μmol.kg^−1", "setting": "[3]; [9]", "value": "72 ± 7", "unit": "mmHg"},
      {"measurement": "MAP, 60 μmol.kg^−1", "setting": "[3]; directly after i.v. bolus 60 μmol/kg (cumulative 100)", "value": "65 ± 4* mmHg"},
      {"measurement": "HR, 60 μmol.kg^−1", "setting": "[3]; directly after i.v. bolus 60 μmol/kg (cumulative 100), listed as Ru(CO)3Cl(glycinate)", "value": "253 ± 23", "unit": "bpm"},
      {"measurement": "HR, 60 μmol.kg^−1", "setting": "[3]; directly after i.v. bolus 60 μmol/kg (cumulative 100), listed as Ru(CO)3Cl(glycinato)", "value": "253±23", "unit": "bpm"},
      {"measurement": "MAP, Baseline", "setting": "[3]; just before infusion of the compound", "value": "79 ± 2", "unit": "mmHg"},
      {"measurement": "HR, Baseline", "setting": "[3]; just before infusion of the compound, listed as Ru(CO)3Cl(glycinate)", "value": "270 ± 20", "unit": "bpm"},
      {"measurement": "HR, Baseline", "setting": "[3]; just before infusion of the compound, listed as Ru(CO)3Cl(glycinato)", "value": "270±20", "unit": "bpm"},
      {"measurement": "survival time of transplanted hearts (in words)", "setting": "[4]; vs. saline control", "value": "significantly prolonged"},
      {"measurement": "hearts still beating", "setting": "[4]; 18 days after transplantation", "value": 100, "unit": "%"},
      {"measurement": "mice without any sign of rejection", "setting": "[4]; 25 days after heart transplantation", "value": 60, "unit": "%"},
      {"measurement": "transplanted hearts still viable", "setting": "[4]; at 30 days", "value": 40, "unit": "%"},
      {"measurement": "nitrite generation in LPS-stimulated macrophages", "setting": "[5]", "value": "significantly attenuated nitrite generation in a concentration dependent manner"},
      {"measurement": "cell viability of macrophages", "setting": "[6]", "value": "did not affect cell viability"}
    ]}
  ]
}
